{"source": "ChEMBL document CHEMBL1201862", "about": "“PubChem BioAssay data set” (2004)", "key": {"[1]": {"system": "Vero", "assay": "Vero cell cytotoxicity, cytotoxicity control for flavivirus capping enzyme inhibitors (AID 588742)", "assay_type": "functional", "conditions": "Chlorocebus sabaeus"}, "[2]": {"target": "Genome polyprotein (dengue virus type 2, UniProt P29990)", "sequence (P29990 2492-3391 limits assumed)": "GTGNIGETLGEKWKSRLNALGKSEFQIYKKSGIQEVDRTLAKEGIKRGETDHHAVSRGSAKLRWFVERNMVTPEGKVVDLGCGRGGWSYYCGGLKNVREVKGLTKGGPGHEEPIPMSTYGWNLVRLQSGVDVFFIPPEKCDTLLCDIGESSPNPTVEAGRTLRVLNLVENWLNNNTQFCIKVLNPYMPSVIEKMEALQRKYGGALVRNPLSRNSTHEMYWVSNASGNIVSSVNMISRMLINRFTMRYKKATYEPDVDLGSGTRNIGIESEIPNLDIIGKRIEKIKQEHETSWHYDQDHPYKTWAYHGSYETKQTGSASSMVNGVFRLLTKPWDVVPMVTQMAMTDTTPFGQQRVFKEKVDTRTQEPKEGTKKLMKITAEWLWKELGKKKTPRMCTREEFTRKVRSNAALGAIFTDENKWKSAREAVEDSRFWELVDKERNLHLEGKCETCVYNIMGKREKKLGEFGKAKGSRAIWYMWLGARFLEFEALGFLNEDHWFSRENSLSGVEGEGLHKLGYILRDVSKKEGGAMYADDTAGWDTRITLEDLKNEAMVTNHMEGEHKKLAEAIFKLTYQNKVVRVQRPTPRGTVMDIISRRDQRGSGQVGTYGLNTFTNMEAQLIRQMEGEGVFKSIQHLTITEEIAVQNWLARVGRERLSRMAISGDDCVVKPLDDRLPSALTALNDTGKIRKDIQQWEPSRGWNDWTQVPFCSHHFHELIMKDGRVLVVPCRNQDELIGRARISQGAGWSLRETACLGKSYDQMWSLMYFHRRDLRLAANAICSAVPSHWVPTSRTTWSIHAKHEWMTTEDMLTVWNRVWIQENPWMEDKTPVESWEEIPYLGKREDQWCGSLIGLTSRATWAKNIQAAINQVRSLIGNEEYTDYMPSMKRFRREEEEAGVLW", "assay": "Dengue-2 NS5 methyltransferase inhibitors, primary screen, biochemical, confirmation dose response (AID 588689)", "assay_type": "functional"}, "[3]": {"target": "DNA dC->dU-editing enzyme APOBEC-3G (Homo sapiens, UniProt Q9HC16)", "sequence (Q9HC16 whole entry)": "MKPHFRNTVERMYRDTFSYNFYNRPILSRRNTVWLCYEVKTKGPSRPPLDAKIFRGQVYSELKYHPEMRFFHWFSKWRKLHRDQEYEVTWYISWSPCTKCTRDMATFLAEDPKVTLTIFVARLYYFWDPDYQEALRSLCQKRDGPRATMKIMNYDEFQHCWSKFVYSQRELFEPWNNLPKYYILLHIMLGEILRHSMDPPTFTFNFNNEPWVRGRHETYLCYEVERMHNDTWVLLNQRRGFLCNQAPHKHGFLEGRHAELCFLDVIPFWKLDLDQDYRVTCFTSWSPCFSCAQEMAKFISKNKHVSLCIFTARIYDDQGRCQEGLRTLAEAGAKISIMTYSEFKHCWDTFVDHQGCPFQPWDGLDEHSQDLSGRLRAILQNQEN", "assay": "APOBEC3G deaminase inhibitors, SAR follow-up, biochemical, fluorescence, single-stranded DNA substrate (AID 602136)", "assay_type": "functional", "conditions": "read-out: IC50_Mean"}, "[4]": {"target": "DNA dC->dU-editing enzyme APOBEC-3A (Homo sapiens, UniProt P31941)", "sequence (P31941 whole entry)": "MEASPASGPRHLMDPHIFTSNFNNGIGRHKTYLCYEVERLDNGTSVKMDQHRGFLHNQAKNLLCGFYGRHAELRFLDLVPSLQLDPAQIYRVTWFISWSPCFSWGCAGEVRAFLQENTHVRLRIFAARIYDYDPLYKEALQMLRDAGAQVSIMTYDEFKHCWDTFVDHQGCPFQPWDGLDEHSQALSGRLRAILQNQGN", "assay": "SAR analysis of small molecule inhibitors of APOBEC3A DNA Deaminase via a fluorescence-based single-stranded DNA deaminase assay.", "assay_type": "functional", "conditions": "read-out: IC50_Mean"}, "[5]": {"system": "HEK293", "assay": "cells", "assay_type": "functional, cell-based", "conditions": "Homo sapiens"}, "[6]": {"target": "T1, Nuclear receptor subfamily 0 group B member 1 (Homo sapiens, UniProt P51843)", "T1 sequence (P51843 whole entry)": "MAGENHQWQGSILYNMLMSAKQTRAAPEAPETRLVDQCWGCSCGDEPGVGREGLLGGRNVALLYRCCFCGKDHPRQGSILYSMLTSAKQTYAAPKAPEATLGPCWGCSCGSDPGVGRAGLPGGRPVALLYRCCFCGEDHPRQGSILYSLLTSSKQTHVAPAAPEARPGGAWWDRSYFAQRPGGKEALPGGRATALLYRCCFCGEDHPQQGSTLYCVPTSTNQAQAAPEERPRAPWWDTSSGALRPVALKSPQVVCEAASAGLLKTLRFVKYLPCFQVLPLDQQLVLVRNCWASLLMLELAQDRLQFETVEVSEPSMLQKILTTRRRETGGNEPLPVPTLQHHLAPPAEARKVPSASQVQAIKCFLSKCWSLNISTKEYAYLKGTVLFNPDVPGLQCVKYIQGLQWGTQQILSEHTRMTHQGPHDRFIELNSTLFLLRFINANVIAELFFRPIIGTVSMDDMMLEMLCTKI", "assay": "Luminescence-based cell-based high throughput dose response assay for inhibitors of the orphan nuclear receptor subfamily 0, group B, member 1 (DAX1; NR0B1). [Related pubchem assays (depositor defined):AID504766, AID504790]", "assay_type": "functional"}, "[7]": {"target": "Mast/stem cell growth factor receptor Kit (Homo sapiens, UniProt P10721)", "sequence (P10721 whole entry)": "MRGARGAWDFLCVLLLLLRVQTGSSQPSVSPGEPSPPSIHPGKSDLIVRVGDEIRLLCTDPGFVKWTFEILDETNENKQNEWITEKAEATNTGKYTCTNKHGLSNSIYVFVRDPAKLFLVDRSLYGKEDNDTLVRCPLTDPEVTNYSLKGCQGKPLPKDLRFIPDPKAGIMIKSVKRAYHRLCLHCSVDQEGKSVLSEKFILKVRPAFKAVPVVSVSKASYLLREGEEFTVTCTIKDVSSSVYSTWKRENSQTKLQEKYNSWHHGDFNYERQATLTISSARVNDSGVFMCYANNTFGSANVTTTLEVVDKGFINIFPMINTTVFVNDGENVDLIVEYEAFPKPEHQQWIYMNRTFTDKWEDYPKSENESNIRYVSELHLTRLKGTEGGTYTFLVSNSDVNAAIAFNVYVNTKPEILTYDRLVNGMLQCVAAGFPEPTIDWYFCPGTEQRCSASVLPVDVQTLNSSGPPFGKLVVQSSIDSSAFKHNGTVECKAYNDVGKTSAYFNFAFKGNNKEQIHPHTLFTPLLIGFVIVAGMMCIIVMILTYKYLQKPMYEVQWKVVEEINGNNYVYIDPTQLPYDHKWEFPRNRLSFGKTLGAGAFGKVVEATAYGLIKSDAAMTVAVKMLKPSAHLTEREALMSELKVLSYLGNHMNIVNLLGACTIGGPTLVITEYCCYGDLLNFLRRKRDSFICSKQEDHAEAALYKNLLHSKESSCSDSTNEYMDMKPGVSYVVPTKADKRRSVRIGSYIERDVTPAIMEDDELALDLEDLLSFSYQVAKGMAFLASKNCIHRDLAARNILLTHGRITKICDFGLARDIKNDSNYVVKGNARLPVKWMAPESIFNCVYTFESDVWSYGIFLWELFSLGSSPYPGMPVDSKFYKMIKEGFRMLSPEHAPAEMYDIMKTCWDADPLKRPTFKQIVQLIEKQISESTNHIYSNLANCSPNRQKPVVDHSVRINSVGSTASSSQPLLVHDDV", "assay_type": "functional"}, "[8]": {"target": "Tyrosine-protein kinase Blk (Homo sapiens, UniProt P51451)", "sequence (P51451 whole entry)": "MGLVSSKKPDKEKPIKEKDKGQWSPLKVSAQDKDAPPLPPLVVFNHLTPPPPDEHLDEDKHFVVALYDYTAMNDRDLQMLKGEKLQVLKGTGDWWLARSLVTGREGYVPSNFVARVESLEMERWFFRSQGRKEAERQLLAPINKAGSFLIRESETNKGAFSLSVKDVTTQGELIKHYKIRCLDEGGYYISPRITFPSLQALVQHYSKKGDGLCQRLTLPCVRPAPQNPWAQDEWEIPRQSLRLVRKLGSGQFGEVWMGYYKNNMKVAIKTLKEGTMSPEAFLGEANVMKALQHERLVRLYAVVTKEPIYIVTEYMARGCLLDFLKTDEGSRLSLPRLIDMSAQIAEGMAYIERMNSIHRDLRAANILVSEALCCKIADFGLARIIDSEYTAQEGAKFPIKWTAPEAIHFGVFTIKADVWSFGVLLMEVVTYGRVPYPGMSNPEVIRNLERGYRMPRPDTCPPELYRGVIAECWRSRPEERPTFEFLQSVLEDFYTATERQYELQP", "assay_type": "functional"}, "[9]": {"target": "Tyrosine-protein kinase ABL1 (Homo sapiens, UniProt P00519)", "sequence (P00519 whole entry)": "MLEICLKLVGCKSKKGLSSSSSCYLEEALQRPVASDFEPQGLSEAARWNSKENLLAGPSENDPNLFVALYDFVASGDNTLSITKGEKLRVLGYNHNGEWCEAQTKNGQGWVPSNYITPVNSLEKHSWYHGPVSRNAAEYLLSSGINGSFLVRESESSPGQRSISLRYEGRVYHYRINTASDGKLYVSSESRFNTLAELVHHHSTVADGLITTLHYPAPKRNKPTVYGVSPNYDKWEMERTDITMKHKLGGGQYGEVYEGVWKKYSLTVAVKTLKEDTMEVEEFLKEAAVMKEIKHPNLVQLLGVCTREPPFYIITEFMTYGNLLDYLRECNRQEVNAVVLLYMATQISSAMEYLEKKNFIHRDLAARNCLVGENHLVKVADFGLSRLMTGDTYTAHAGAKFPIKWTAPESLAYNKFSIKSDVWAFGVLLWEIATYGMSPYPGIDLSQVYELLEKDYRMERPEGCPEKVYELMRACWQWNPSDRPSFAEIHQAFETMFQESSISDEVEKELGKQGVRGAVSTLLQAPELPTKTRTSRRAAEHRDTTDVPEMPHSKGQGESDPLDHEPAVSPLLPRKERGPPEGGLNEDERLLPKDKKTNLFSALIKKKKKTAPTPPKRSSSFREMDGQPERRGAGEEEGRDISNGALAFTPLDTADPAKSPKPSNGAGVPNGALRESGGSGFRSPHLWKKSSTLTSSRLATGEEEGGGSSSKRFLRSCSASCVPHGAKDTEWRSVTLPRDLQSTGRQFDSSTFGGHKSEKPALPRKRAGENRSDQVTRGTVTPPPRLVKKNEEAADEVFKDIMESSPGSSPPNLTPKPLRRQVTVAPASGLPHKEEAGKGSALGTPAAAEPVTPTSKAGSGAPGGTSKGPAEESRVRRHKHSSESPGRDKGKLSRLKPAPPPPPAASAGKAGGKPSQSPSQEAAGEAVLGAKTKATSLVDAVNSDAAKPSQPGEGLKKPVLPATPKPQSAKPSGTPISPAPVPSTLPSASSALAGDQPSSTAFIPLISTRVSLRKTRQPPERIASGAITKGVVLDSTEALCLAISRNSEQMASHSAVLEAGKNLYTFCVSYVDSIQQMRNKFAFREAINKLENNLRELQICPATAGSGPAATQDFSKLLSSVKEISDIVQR", "assay_type": "functional"}, "[10]": {"target": "Macrophage colony-stimulating factor 1 receptor (Homo sapiens, UniProt P07333)", "sequence (P07333 whole entry)": "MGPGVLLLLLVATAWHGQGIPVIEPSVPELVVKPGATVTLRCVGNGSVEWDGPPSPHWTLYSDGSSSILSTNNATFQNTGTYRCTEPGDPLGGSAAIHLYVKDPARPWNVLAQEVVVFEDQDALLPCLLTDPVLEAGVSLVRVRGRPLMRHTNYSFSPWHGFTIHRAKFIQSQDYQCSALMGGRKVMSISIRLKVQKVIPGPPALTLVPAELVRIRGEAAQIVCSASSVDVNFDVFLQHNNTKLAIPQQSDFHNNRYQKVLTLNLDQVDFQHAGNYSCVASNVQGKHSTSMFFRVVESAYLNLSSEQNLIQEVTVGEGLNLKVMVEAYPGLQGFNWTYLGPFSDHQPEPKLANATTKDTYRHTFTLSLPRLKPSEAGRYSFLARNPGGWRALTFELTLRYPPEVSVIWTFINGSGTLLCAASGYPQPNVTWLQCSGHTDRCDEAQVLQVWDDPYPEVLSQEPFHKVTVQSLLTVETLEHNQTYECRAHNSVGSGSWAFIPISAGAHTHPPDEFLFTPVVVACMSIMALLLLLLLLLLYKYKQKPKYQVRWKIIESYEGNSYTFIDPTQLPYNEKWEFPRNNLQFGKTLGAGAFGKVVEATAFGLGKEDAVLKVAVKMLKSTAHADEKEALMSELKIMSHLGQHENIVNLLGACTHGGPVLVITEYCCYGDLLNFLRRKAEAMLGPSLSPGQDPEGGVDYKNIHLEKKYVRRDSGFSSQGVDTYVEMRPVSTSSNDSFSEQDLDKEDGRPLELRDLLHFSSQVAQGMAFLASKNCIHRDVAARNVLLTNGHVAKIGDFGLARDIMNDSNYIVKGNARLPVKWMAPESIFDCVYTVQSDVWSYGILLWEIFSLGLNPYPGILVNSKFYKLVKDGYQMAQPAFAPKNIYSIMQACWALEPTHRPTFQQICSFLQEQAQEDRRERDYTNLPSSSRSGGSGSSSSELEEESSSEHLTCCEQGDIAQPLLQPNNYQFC", "assay_type": "functional"}}, "note": "Activity calls are given as the source filed them."}
{"smiles": "O=S(=O)(N=C1C=CC(=NS(=O)(=O)c2ccccc2)c2ccccc21)c1ccccc1", "values": [{"measurement": "CC50", "setting": "[1]", "result": "34.1 µM (active)"}, {"measurement": "IC50", "setting": "[2]", "result": "19.1 µM (active)"}]}
{"smiles": "Cc1ccc(N2C(=O)C(=O)N(CC(=O)c3ccc[nH]3)C2=O)c(C)c1", "values": [{"measurement": "IC50", "setting": "[3]", "result": "> 99 µM (inactive)"}, {"measurement": "IC50", "setting": "[4]", "result": "> 99 µM (inactive)"}]}
{"smiles": "CC(C=NNc1ccc([N+](=O)[O-])cn1)=Cc1ccccc1", "values": [{"measurement": "IC50", "setting": "[5]", "result": "> 67.5 µM (inactive)"}, {"measurement": "IC50", "setting": "[6]", "result": "> 67.5 µM (inactive)"}]}
{"smiles": "Cc1cc(C)cc(NC(=O)Nc2ccc(-c3ccnc4c3c(N)nn4C)cc2)c1", "values": [{"measurement": "Ki", "setting": "[7]", "result": "0.001 µM (active)"}, {"measurement": "Ki", "setting": "[8]", "result": "0.794 µM (active)"}, {"measurement": "Ki", "setting": "[9]", "result": "> 0.631 µM (inactive)"}, {"measurement": "Ki", "setting": "[10]", "result": "0.002 µM (active)"}]}
